According to patent US11253521B2, “3-hydroxy-quinazoline-2,4-dione derivatives and their use as nuclease modulators” (Ludwig Institute for Cancer Research Ltd, priority 2015, dated 2022):
Values belong to the molecule of their own block, whether it stands above or below them.

Molecular target: recombinant full-length FEN-1 (Homo sapiens (Human), UniProt P39748)
Experiment: Fluorogenic biochemical (enzymatic) assay, FEN-1
Settings: 200 nM DNA flap substrate, 50 mM Tris pH 8.0, 10 mM MgCl2, 2-4 hours at 25° C. or 37° C., read-out: SMD FEN-1 IC50
Protocol: Fluorogenic biochemical assays used recombinant full-length FEN-1 or catalytic domains of Exo1, XPG or GEN1 and 200 nM of a DNA substrate (formed by annealing three oligonucleotides—quencher (5′-CACGTTGACTACCGCTCAATCCTGACGAACACATC-BHQ2), flap (5′-TAMRA-GA TGTCAAGCAGTCCTAACTTTGAGGCAGAGTCCGC) and template (5′-GC GGACTCTGCCTCAAGACGGTAGTCAACGTG-3′) (PMID: 21062821)) in 50 mM Tris pH 8.0, 10 mM MgCl2, 1 mM DTT, and 0.01% Tween-20. Inhibitors arrayed in dose response were added from DMSO stocks (using a V&P 384-pintool head) to the enzyme solution in low volume, black polystyrene 384-well plates (Corning #3677) 15 minutes prior to the addition of the DNA substrate. Reactions were allowed to proceed for 2-4 hours at 25° C. or 37° C. Fluorescence data (Excitation: 530 nm/10 nm bandwidth; Emission: 590 nm/20 nm bandwith) were measured with an Infinite M1000 plate reader (Tecan).

recombinant full-length FEN-1, sequence (P39748 whole entry): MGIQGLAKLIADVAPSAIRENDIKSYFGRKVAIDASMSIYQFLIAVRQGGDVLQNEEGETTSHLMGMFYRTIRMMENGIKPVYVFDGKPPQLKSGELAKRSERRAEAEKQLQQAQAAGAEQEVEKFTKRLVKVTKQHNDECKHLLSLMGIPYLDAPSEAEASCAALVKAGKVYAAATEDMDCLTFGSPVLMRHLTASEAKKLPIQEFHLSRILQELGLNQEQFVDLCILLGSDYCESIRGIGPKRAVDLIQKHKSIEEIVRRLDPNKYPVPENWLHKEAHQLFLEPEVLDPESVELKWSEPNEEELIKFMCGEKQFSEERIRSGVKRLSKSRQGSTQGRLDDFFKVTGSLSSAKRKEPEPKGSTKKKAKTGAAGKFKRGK

IC50: 23.8 nM
SMILES: O=c1[nH]c2c(S(=O)(=O)c3ccccc3)cccc2c(=O)n1O [Compound 21]

IC50: 24.2 nM
SMILES: Cc1ccc(S(=O)(=O)c2cccc3c(=O)n(O)c(=O)[nH]c23)cc1 [Compound 31]

IC50: 14.5 nM
SMILES: Cc1cccc(S(=O)(=O)c2cccc3c(=O)n(O)c(=O)[nH]c23)c1 [Compound 32]

IC50: 26.1 nM
SMILES: O=c1[nH]c2c(S(=O)(=O)c3ccc(Cl)cc3)cccc2c(=O)n1O [Compound 33]

IC50: 26.4 nM
SMILES: O=c1[nH]c2c(S(=O)(=O)c3cccc(Cl)c3)cccc2c(=O)n1O [Compound 34]

IC50: 13.3 nM
SMILES: O=c1[nH]c2c(S(=O)(=O)c3cccc(C(F)(F)F)c3)cccc2c(=O)n1O [Compound 41]

IC50: 16.5 nM
SMILES: COc1cccc(S(=O)(=O)c2cccc3c(=O)n(O)c(=O)[nH]c23)c1 [Compound 42]

IC50: 14 nM
SMILES: O=c1[nH]c2c(S(=O)(=O)c3ccc(Br)cc3)cccc2c(=O)n1O [Compound 45]

IC50: 12.9 nM
SMILES: O=c1[nH]c2c(S(=O)(=O)c3cccc(Br)c3)cccc2c(=O)n1O [Compound 46]

IC50: 15.7 nM
SMILES: O=c1[nH]c2c(S(=O)(=O)c3cccc(O)c3)cccc2c(=O)n1O [Compound 47]

IC50: 35.4 nM
SMILES: Nc1cccc(S(=O)(=O)c2cccc3c(=O)n(O)c(=O)[nH]c23)c1 [Compound 49]

IC50: 16.5 nM
SMILES: CC(=O)Nc1cccc(S(=O)(=O)c2cccc3c(=O)n(O)c(=O)[nH]c23)c1 [Compound 55]

IC50: 14.8 nM
SMILES: N#Cc1cccc(S(=O)(=O)c2cccc3c(=O)n(O)c(=O)[nH]c23)c1 [Compound 56]

IC50: 12.8 nM
SMILES: O=c1[nH]c2c(S(=O)(=O)c3cc(F)cc(F)c3)cccc2c(=O)n1O [Compound 57]

IC50: 12.8 nM
SMILES: COC(=O)Nc1cccc(S(=O)(=O)c2cccc3c(=O)n(O)c(=O)[nH]c23)c1 [Compound 58]

IC50: 14.1 nM
SMILES: CNC(=O)Nc1cccc(S(=O)(=O)c2cccc3c(=O)n(O)c(=O)[nH]c23)c1 [Compound 59]

IC50: 16.9 nM
SMILES: NC(=O)Nc1cccc(S(=O)(=O)c2cccc3c(=O)n(O)c(=O)[nH]c23)c1 [Compound 63]

IC50: 14.9 nM
SMILES: CN(C)c1cccc(S(=O)(=O)c2cccc3c(=O)n(O)c(=O)[nH]c23)c1 [Compound 64]

IC50: 10 nM
SMILES: O=c1[nH]c2c(S(=O)(=O)c3cccc(F)c3)cccc2c(=O)n1O [Compound 69]

IC50: 5.6 nM
SMILES: O=c1[nH]c2c(S(=O)(=O)c3ccc4[nH]cnc4c3)cccc2c(=O)n1O [Compound 72]

IC50: 11.6 nM
SMILES: O=c1[nH]c2c(S(=O)(=O)c3cccs3)cccc2c(=O)n1O [Compound 75]

Continued, molecule first:

SMILES: O=c1[nH]c2cccc(Cl)c2c(=O)n1O [Compound 11]
IC50: 20.8 nM

SMILES: O=c1[nH]c2ccccc2c(=O)n1O [Compound 12]
IC50: 241 nM

SMILES: O=c1[nH]c2ccncc2c(=O)n1O [Compound 13]
IC50: 1310 nM

SMILES: O=c1[nH]c2ncccc2c(=O)n1O [Compound 14]
IC50: 106 nM

SMILES: O=c1[nH]c2cc(-c3ccccc3)ccc2c(=O)n1O [Compound 15]
IC50: 356 nM

SMILES: O=c1[nH]c2nc(-c3ccccc3)ccc2c(=O)n1O [Compound 16]
IC50: 392 nM

SMILES: Cn1c(=O)n(O)c(=O)c2cccnc21 [Compound 17]
IC50: 3340 nM

SMILES: O=c1[nH]c2c(-c3ccccc3)cccc2c(=O)n1O [Compound 18]
IC50: 113 nM

SMILES: O=c1[nH]c2nc(S(=O)(=O)c3ccccc3)ccc2c(=O)n1O [Compound 19]
IC50: 134 nM

SMILES: O=c1c2cccnc2n(-c2ccccc2)c(=O)n1O [Compound 20]
IC50: 2830 nM

SMILES: O=c1[nH]c2cc(S(=O)(=O)c3ccccc3)ccc2c(=O)n1O [Compound 22]
IC50: 79.5 nM

SMILES: O=c1[nH]c2nc(Cc3ccccc3)ccc2c(=O)n1O [Compound 23]
IC50: 11 nM

SMILES: O=c1[nH]c2c(Cc3ccccc3)cccc2c(=O)n1O [Compound 24]
IC50: 53.8 nM

SMILES: O=c1[nH]c2cc(S(=O)(=O)Cc3ccccc3)cnc2c(=O)n1O [Compound 25]
IC50: 1640 nM

SMILES: O=c1[nH]c2c(-c3ccccc3)ccc(Cl)c2c(=O)n1O [Compound 26]
IC50: 37.3 nM

SMILES: O=c1[nH]c2cc(Cc3ccccc3)ccc2c(=O)n1O [Compound 27]
IC50: 97.3 nM

SMILES: O=c1[nH]c2c(Cc3ccccc3)ccc(Cl)c2c(=O)n1O [Compound 28]
IC50: 77.2 nM

SMILES: O=c1[nH]c2cc(S(=O)(=O)Cc3ccccc3)ccc2c(=O)n1O [Compound 29]
IC50: 160 nM

SMILES: O=c1[nH]c2c(S(=O)(=O)Cc3ccccc3)cccc2c(=O)n1O [Compound 30]
IC50: 129 nM

SMILES: O=c1[nH]c2cccc(Br)c2c(=O)n1O [Compound 35]
IC50: 19.6 nM

SMILES: O=c1[nH]c2c(F)cccc2c(=O)n1O [Compound 36]
IC50: 42 nM

SMILES: O=c1[nH]c2cc(F)ccc2c(=O)n1O [Compound 37]
IC50: 171 nM

SMILES: O=c1[nH]c2ccc(F)cc2c(=O)n1O [Compound 38]
IC50: 216 nM

SMILES: O=c1[nH]c2cccc(F)c2c(=O)n1O [Compound 39]
IC50: 54.4 nM

SMILES: O=c1[nH]c2c(S(=O)(=O)c3ccccc3)cc(F)cc2c(=O)n1O [Compound 40]
IC50: 15.6 nM

SMILES: O=c1[nH]c2c(S(=O)(=O)c3ccccc3)ccc(Cl)c2c(=O)n1O [Compound 43]
IC50: 9.9 nM

SMILES: Cc1cccc(S(=O)(=O)c2cc(Cl)cc3c(=O)n(O)c(=O)[nH]c23)c1 [Compound 44]
IC50: 10.9 nM

SMILES: Cc1cccc(S(=O)(=O)c2ccc(Cl)c3c(=O)n(O)c(=O)[nH]c23)c1 [Compound 48, 5-chloro-3-hydroxy-8-(m-tolylsulfonyl)quinazoline-2,4(1H,3H)-dione]
IC50: 9.3 nM

SMILES: Cc1cc(C)cc(S(=O)(=O)c2cccc3c(=O)n(O)c(=O)[nH]c23)c1 [Compound 50]
IC50: 11.6 nM

SMILES: Cc1cccc(S(=O)(=O)c2c(F)ccc3c(=O)n(O)c(=O)[nH]c23)c1 [Compound 51]
IC50: 19.2 nM

SMILES: Cc1cccc(S(=O)(=O)c2c(Cl)ccc3c(=O)n(O)c(=O)[nH]c23)c1 [Compound 52]
IC50: 139 nM

SMILES: Cc1cccc(S(=O)(=O)c2cc(F)cc3c(=O)n(O)c(=O)[nH]c23)c1 [Compound 53]
IC50: 13.7 nM

SMILES: O=c1[nH]c2c(S(=O)(=O)c3cc(Cl)cc(Cl)c3)cccc2c(=O)n1O [Compound 54]
IC50: 18.1 nM

SMILES: O=c1[nH]c2c(S(=O)(=O)c3cccc(Nc4ncccn4)c3)cccc2c(=O)n1O [Compound 60]
IC50: 16 nM

SMILES: O=c1[nH]c2c(S(=O)(=O)c3cc(Br)cc(Br)c3)cccc2c(=O)n1O [Compound 61]
IC50: 16.6 nM

SMILES: O=c1[nH]c2c(S(=O)(=O)c3cccc(Nc4ccccn4)c3)cccc2c(=O)n1O [Compound 62]
IC50: 28.9 nM

SMILES: COc1cc(OC)cc(S(=O)(=O)c2cccc3c(=O)n(O)c(=O)[nH]c23)c1 [Compound 65]
IC50: 17 nM

SMILES: O=c1[nH]c2c(S(=O)(=O)c3cc(O)cc(O)c3)cccc2c(=O)n1O [Compound 66]
IC50: 9.3 nM

SMILES: Cc1cccc(S(=O)(=O)c2ccc(F)c3c(=O)n(O)c(=O)[nH]c23)c1 [Compound 67]
IC50: 17.8 nM

SMILES: O=c1[nH]c2c(S(=O)(=O)c3ccccc3)c(F)ccc2c(=O)n1O [Compound 68]
IC50: 94.4 nM

SMILES: O=c1[nH]c2c(S(=O)(=O)c3cccc(F)c3)ccc(Cl)c2c(=O)n1O [Compound 70]
IC50: 9.8 nM

SMILES: O=c1[nH]c2c(S(=O)(=O)c3cc(F)cc(F)c3)ccc(Cl)c2c(=O)n1O [Compound 71]
IC50: 6.7 nM

SMILES: CC(=O)Nc1cc(NC(C)=O)cc(S(=O)(=O)c2cccc3c(=O)n(O)c(=O)[nH]c23)c1 [Compound 73]
IC50: 7.6 nM

SMILES: Nc1cc(N)cc(S(=O)(=O)c2cccc3c(=O)n(O)c(=O)[nH]c23)c1 [Compound 74]
IC50: 8.5 nM

SMILES: Cc1cc(Cl)cc(S(=O)(=O)c2ccc(Cl)c3c(=O)n(O)c(=O)[nH]c23)c1 [Compound 76]
IC50: 9.4 nM

SMILES: Cc1cc(F)cc(S(=O)(=O)c2ccc(Cl)c3c(=O)n(O)c(=O)[nH]c23)c1 [Compound 77]
IC50: 8.5 nM

SMILES: COc1ccc(S(=O)(=O)c2ccccc2)c2[nH]c(=O)n(O)c(=O)c12 [Compound 78]
IC50: 6.6 nM

SMILES: O=c1[nH]c2c(S(=O)(=O)c3cccs3)ccc(Cl)c2c(=O)n1O [Compound 79]
IC50: 16.6 nM

SMILES: COc1ccc(S(=O)(=O)c2cccc(C)c2)c2[nH]c(=O)n(O)c(=O)c12 [Compound 80]
IC50: 9.4 nM

SMILES: CN(C)c1cc(N(C)C)cc(S(=O)(=O)c2cccc3c(=O)n(O)c(=O)[nH]c23)c1 [Compound 81]
IC50: 18.4 nM
